According to patent US12391687B2, “Five-and-six-membered heterocyclic compound and use thereof as protein receptor kinase inhibitor” (SHANGHAI ENNOVABIO PHARMACEUTICALS CO., LTD., priority 2018, dated 2025):

Legend:
Type in all cases: biochemical
[1] = biological target: Recombinant human TRKA (Homo sapiens (Human), UniProt P04629); assay: In vitro activity test on TRKA kinase (HTRF kinEASE TK); details: 14.68 μM ATP, 40 min, room temperature
Experimental: (§1) Recombinant human TRKA, TRKB, TRKC proteins were purchased from Carna Biosciences. HTRF kinEASE TK kit was purchased from Cisbio Bioassays. Synergy Neo 2 of Biotek was used to read the plate.
(§2) The tested compounds were subjected to 3-fold serial dilution to reach a final concentration of 1 μM to 0.05 nM (10 concentrations), duplicates for each concentration; and the DMSO concentration in the detection reaction was 1%.
0.2 ng/μL TRKA protein kinase, 1 μM TK Substrate-biotin polypeptide substrate, 14.68 μM ATP, 1×enzymatic buffer, 5 mM MgCl2, and 1 mM DTT. The assay plate was White Proxiplate384-Plus plate (PerkinElmer), and the reaction was incubated at room temperature for 40 min, and the assay volume was 10 μL.
(§3) 10 μL of detection reagent (containing 0.125 μM SA-XL665 and 5 μL 1×TK-Antibody) was added to the plate and incubated overnight at room temperature. Synergy Neo 2 was used to read the plate.
(§4) The 665/620 Ratio was converted according to the following formula into inhibition rate (%)=(1−Ratiotest/Ratiomax)×100%. Ratiomax was the value of positive controls without tested compound, and Ratiotest was the value of each concentration of different compounds. IC50 (nM) data was obtained by 4 parameter curve fitting (see Table 1).

[2] = biological target: Recombinant human TRKB (Homo sapiens (Human), UniProt Q16620); assay: In vitro activity test on TRKB kinase (HTRF kinEASE TK); details: 4.77 μM ATP, 50 min, room temperature
Chain of Recombinant human TRKB (Q16620 32-822): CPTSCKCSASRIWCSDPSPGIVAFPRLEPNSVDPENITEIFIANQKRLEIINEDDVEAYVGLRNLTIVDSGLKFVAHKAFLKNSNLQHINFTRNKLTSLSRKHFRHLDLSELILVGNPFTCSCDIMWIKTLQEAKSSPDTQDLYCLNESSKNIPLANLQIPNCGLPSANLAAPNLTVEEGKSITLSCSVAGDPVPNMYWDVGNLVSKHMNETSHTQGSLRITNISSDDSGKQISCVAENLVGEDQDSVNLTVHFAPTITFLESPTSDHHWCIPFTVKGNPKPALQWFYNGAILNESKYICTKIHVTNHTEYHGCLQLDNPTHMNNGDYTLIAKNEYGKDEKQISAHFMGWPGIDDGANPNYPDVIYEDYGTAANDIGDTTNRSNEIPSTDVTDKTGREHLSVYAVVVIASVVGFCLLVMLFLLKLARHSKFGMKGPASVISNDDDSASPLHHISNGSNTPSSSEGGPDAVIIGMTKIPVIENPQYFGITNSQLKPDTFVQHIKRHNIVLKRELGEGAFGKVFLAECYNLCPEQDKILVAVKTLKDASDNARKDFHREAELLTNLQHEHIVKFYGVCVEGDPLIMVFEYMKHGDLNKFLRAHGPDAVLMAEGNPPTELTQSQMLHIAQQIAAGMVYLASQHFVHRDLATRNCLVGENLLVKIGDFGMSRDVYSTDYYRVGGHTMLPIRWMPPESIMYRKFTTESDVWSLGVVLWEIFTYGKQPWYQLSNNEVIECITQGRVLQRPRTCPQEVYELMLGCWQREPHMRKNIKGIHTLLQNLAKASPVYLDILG
Experimental: as §1, §2
(§5) 0.037 ng/μL TRKB protein kinase, 1 μM TK Substrate-biotin polypeptide substrate, 4.77 μM ATP, 1× enzymatic buffer, 5 mM MgCl2, 1 mM MnCl2 and 1 mM DTT. The assay plate was White Proxiplate 384-Plus plate (PerkinElmer), the reaction was incubated at room temperature for 50 min, and the assay volume was 10 μL.
as §3, §4

[3] = biological target: Recombinant human TRKC (Homo sapiens (Human), UniProt Q16288); assay: In vitro activity test on TRKC kinase (HTRF kinEASE TK); details: 25.64 μM ATP, 40 min, room temperature
Chain of Recombinant human TRKC (Q16288 32-839): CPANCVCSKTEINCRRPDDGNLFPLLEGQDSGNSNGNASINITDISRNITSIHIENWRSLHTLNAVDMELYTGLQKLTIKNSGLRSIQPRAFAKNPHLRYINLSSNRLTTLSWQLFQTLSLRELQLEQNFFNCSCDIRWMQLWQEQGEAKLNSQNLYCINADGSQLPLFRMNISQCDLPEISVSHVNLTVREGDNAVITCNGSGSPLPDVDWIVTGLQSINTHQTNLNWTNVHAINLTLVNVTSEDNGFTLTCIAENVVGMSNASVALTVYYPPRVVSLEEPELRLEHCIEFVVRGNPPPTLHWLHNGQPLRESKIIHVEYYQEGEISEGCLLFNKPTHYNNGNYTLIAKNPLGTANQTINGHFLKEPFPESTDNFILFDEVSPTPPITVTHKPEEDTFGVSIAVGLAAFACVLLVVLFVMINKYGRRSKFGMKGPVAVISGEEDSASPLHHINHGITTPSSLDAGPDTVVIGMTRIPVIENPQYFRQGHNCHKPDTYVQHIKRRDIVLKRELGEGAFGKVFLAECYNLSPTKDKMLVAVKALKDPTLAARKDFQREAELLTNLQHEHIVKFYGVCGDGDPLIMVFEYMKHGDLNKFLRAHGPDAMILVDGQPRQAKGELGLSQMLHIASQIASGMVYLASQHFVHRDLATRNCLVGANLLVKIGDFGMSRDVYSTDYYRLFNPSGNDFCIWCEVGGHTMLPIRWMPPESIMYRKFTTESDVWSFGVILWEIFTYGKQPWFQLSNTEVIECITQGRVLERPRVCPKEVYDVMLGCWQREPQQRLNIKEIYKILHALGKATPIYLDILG
Experimental: as §1, §2
as §5, with “ng/μL TRKC” for “ng/μL TRKB”, “substrate, 25.64” for “substrate, 4.77”, “MgCl2,” for “MgCl2, 1 mM MnCl2”, “The detection” for “The assay”, “for 40” for “for 50”
as §3, §4

[4] = biological target: recombinant human TRKA (G595R) (Homo sapiens (Human), UniProt P04629, G595R); assay: In vitro activity test on mutant TRKA (G595R) (HTRF kinEASE TK); details: 4.5 μM ATP, 30 min, room temperature; read-out: TRKA (G595R) IC 50
Chain of recombinant human TRKA (G595R) (P04629 33-796 G595R): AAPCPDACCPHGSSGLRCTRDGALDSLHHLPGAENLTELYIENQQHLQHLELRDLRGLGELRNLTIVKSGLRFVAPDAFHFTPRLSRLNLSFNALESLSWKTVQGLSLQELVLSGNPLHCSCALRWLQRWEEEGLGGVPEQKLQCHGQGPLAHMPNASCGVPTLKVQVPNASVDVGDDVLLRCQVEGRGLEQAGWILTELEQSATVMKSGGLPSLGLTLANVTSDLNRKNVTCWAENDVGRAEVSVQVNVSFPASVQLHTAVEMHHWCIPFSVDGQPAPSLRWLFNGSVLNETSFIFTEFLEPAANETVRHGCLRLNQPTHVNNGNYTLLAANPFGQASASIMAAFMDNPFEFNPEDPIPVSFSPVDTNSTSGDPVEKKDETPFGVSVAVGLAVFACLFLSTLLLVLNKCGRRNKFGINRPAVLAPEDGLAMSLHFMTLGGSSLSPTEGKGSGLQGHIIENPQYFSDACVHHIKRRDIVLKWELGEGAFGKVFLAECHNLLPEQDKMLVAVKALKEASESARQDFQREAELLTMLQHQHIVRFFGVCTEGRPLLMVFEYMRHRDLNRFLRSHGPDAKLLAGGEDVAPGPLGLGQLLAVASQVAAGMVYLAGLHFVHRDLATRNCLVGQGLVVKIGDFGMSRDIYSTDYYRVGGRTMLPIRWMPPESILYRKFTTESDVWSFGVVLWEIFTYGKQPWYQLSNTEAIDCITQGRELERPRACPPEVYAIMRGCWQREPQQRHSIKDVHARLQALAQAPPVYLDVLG
Experimental: The recombinant human TRKA (G595R), TRKA (G667C) and TRKC (G623R) proteins were purchased from SignalChem. HTRF kinEASE TK kit was purchased from Cisbio Bioassays. Synergy Neo 2 of Biotek was used to read the plate.
The tested compounds were subjected to 4-fold serial dilution to reach a final concentration of 1 μM to 0.004 nM (10 concentrates), duplicates for each concentration; and the final concentration of DMSO in the reaction was 1%.
0.12 ng/μL TRKA (G595R) kinase, 1 μM TK Substrate-biotin polypeptide substrate, 4.5 μM ATP, 1× enzymatic buffer, 5 mM MgCl2, and 1 mM DTT. The assay plate was White Proxiplate384-Plus plate (PerkinElmer), and the reaction was incubated at room temperature for 30 min, and the assay volume was 10 μL.
10 μL of detection reagent (containing 0.125 μM SA-XL665 and 5 μL 1×TK-Antibody) was added to the plate and incubated overnight at room temperature, and Synergy Neo 2 was used to read the plate.
The value of 665/620 Ratio minus the value of negative control wells without enzyme, then the obtained value was converted according to the following formula into inhibition rate (%)=(1−Ratiotest/Ratiomax)×100%. Ratiomax was the value of positive controls without tested compound, and Ratiotest was the value of each concentration of different compounds. IC50 (nM) data was obtained by 4 parameter curve fitting (see Table 3).

Chain of Recombinant human TRKA (P04629 33-796): as the sequence (P04629 33-796 G595R) above, with R563G counted along it

With COC(=O)c1cnc2[nH]nc(N3C[C@@H](F)C[C@@H]3c3cc(F)ccc3F)c2c1 [Example 13, Methyl 3-((2R,4S)-2-(2,5-difluorophenyl)-4-fluoropyrrolidin-1-yl)-1H-pyrazolo[3,4-b]pyridine-5-carboxylate] the IC50 [1] was less than 1 nM, the IC50 [2] was less than 1 nM and the IC50 [3] was less than 1 nM. It also gave an IC50 [4] of less than 1 nM.

In the case of O=C(O)c1cnc2[nH]nc(N3C[C@@H](F)C[C@@H]3c3cc(F)ccc3F)c2c1 [Example 17, 3-((2R,4S)-2-(2,5-difluorophenyl)-4-fluoropyrrolidin-1-yl)-1H-pyrazolo[3,4-b]pyridine-5-carboxylic acid], the IC50 [1] is reported as less than 1 nM, the IC50 [2] is reported as less than 1 nM and the IC50 [3] is reported as less than 1 nM. For the same compound, the IC50 [4] was less than 10 nM.

For CN(C)C(=O)c1cnc2[nH]nc(N3C[C@@H](F)C[C@@H]3c3cc(F)ccc3F)c2c1 [Example 18, 3-((2R,4S)-2-(2,5-difluorophenyl)-4-fluoropyrrolidin-1-yl)-N,N-dimethyl-1H-pyrazolo[3,4-b]pyridine-5-carboxamide], the IC50 [1] was less than 500 nM, the IC50 [2] was less than 500 nM and the IC50 [3] was less than 500 nM.

With CC(C)OC(=O)c1cnc2[nH]nc(N3C[C@@H](F)C[C@@H]3c3cc(F)ccc3F)c2c1 [Example 19, isopropyl 3-((2R,4S)-2-(2,5-difluorophenyl)-4-fluoropyrrolidin-1-yl)-1H-pyrazolo[3,4-b]pyridine-5-carboxylate] the IC50 [1] was less than 1 nM, the IC50 [2] was less than 1 nM and the IC50 [3] was less than 1 nM. The IC50 [4] was less than 1 nM.

For Fc1ccc(F)c([C@H]2C[C@H](F)CN2c2n[nH]c3ncc(-c4nn[nH]n4)cc23)c1 [Example 21, 3-((2R,4S)-2-(2,5-difluorophenyl)-4-fluoropyrrolidin-1-yl)-5-(2H-tetrazol-5-yl)-1H-pyrazolo[3,4-b]pyridine], the IC50 [1] was less than 1 nM, the IC50 [2] was less than 1 nM and the IC50 [3] was less than 1 nM. The IC50 [4] was less than 1 nM.

In the case of O=C1CC(n2cc(-c3cnc4[nH]nc(N5C[C@@H](F)C[C@@H]5c5cc(F)ccc5F)c4c3)cn2)CCN1 (stereo partly drawn) [Example 23, 4-(4-(3-((2R,4S)-2-(2,5-difluorophenyl)-4-fluoropyrrolidin-1-yl)-1H-pyrazolo[3,4-b]pyridin-5-yl)-1H-pyrazol-1-yl)piperidin-2-one], the IC50 [1] is reported as less than 10 nM, the IC50 [2] is reported as less than 10 nM and the IC50 [3] is reported as less than 10 nM.

CS(=O)(=O)n1cc(-c2cnc3[nH]nc(N4C[C@@H](F)C[C@@H]4c4cc(F)ccc4F)c3c2)cn1 [Example 27, 3-((2R,4S)-2-(2,5-difluorophenyl)-4-fluoropyrrolidin-1-yl)-5-(1-(methylsulfonyl)-1H-pyrazol-4-yl)-1H-pyrazolo[3,4-b]pyridine] gave an IC50 [1] of less than 1 nM, an IC50 [2] of less than 1 nM and an IC50 [3] of less than 1 nM. It also gave an IC50 [4] of less than 1 nM.

For Fc1ccc(F)c([C@H]2C[C@H](F)CN2c2n[nH]c3ncc(-c4cnn(C5CCOCC5)c4)cc23)c1 [Example 28, 3-((2R,4S)-2-(2,5-difluorophenyl)-4-fluoropyrrolidin-1-yl)-5-(1-(tetrahydro-2H-pyran-4-yl)-1H-pyrazol-4-yl)-1H-pyrazolo[3,4-b]pyridine], the IC50 [1] was less than 1 nM, the IC50 [2] was less than 1 nM and the IC50 [3] was less than 1 nM. The IC50 [4] was less than 1 nM.

COCc1nnc(-c2cnc3c(c2)c(N2C[C@@H](F)C[C@@H]2c2cc(F)ccc2F)nn3COC)o1 [Example 38, 2-(3-((2R,4S)-2-(2,5-difluorophenyl)-4-fluoropyrrolidin-1-yl)-1-(methoxymethyl)-1H-pyrazolo[3,4-b]pyridin-5-yl)-5-(methoxymethyl)-1,3,4-oxadiazole] showed an IC50 [1] of less than 100 nM, an IC50 [2] of less than 10 nM and an IC50 [3] of less than 100 nM.

For NNC(=O)c1cnc2[nH]nc(N3C[C@@H](F)C[C@@H]3c3cc(F)ccc3F)c2c1 [Example 39, 3-((2R,4S)-2-(2,5-difluorophenyl)-4-fluoropyrrolidin-1-yl)-1H-pyrazolo[3,4-b]pyridine-5-carbohydrazide], the IC50 [1] was less than 1 nM, the IC50 [2] was less than 1 nM and the IC50 [3] was less than 1 nM.
